# Patent publication US10570121B2, “Substituted dihydroisoquinolinone compounds” (priority 2014, dated 2020)
# pIC50, pKi: −log10 of the molar value. Read-outs that look alike come from different tables or passages of the source.
# How the values were obtained:
# WT EZH2 = WT EZH2 (Homo sapiens (Human), UniProt Q15910); experiment: WT EZH2 nucleosome assay (10X SAM, high SAM conditions); format: biochemical; conditions: 15 uM SAM, Ki app from competitive inhibition fit; for pKi: read-out: WT EZH2 Nucleosome assay (10X SAM) Ki; for Ki: WT EZH2 Nucleosome assay (10X SAM) Ki (μM)
# Sequence of WT EZH2 (Q15910 whole entry, looked up): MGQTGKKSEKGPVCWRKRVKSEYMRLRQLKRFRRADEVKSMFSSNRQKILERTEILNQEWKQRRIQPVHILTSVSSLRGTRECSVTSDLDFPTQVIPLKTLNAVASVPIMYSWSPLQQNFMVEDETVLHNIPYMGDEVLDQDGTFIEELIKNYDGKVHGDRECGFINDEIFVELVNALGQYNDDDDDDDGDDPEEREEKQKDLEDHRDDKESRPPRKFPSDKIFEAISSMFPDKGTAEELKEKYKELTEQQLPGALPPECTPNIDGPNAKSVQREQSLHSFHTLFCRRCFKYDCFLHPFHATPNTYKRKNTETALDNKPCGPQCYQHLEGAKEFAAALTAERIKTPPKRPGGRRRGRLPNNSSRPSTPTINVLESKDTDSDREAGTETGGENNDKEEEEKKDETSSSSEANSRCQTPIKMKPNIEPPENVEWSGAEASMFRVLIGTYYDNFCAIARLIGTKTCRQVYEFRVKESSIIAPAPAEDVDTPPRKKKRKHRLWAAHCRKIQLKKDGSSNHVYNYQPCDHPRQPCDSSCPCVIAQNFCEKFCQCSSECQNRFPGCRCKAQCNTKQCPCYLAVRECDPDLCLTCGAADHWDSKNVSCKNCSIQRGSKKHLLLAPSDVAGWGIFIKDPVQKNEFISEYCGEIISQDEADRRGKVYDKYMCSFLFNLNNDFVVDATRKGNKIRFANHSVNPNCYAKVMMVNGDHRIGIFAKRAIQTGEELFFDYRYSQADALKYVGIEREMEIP
# Sequence of WT EZH2 (O75530 whole entry partner, looked up): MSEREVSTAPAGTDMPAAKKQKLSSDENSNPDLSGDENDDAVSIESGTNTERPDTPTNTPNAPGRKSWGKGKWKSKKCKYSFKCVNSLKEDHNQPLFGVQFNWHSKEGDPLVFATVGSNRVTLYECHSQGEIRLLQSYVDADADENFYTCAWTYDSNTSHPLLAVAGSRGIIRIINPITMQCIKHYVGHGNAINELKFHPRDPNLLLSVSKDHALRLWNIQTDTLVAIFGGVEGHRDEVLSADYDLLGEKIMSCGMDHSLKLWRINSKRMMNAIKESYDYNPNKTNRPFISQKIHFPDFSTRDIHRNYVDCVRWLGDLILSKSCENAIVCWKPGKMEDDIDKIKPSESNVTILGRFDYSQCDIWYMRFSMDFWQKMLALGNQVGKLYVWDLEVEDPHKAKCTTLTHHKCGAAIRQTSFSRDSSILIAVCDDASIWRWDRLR
# Sequence of WT EZH2 (Q15022 whole entry partner, looked up): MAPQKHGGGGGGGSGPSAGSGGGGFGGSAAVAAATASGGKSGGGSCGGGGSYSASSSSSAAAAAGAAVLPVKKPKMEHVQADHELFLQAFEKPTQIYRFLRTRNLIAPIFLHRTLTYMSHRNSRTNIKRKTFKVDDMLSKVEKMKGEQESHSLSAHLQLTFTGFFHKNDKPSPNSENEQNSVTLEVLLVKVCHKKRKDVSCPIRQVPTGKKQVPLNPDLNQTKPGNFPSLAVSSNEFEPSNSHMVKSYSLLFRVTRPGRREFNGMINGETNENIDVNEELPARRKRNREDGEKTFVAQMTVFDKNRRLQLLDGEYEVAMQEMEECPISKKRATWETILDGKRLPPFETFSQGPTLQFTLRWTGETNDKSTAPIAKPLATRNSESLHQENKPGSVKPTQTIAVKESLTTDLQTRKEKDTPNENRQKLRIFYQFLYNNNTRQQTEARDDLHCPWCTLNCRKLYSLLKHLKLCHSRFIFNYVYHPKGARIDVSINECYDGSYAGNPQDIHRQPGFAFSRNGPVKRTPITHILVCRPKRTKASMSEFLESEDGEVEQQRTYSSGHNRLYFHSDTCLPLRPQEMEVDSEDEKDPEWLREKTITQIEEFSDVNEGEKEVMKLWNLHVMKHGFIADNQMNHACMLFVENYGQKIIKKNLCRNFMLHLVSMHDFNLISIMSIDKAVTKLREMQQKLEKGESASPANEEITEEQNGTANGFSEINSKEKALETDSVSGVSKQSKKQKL
# Sequence of WT EZH2 (Q09028 whole entry partner, looked up): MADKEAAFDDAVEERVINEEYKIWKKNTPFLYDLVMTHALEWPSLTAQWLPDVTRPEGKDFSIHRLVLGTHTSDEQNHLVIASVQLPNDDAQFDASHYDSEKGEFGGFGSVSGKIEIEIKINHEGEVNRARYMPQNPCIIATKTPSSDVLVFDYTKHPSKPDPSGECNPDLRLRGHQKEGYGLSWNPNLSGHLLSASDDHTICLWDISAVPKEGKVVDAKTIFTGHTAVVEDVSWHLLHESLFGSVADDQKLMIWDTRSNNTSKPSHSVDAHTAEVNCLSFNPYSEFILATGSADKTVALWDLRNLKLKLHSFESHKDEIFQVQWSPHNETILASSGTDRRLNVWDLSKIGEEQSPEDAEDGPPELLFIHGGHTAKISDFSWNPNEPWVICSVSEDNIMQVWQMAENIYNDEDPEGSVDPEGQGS
# EZH2 Mutant Y641N = EZH2 Mutant Y641N (Homo sapiens (Human), UniProt Q15910, Y641N); experiment: EZH2 Mutant Y641N nucleosome assay; format: biochemical; conditions: PRC2 4-protein complex 6 nM, 1.5 μM SAM, HeLa oligonucleosomes; for pIC50: read-out: EZH2 Mutant Y641N Nucleosome assay IC50; for IC50: EZH2 Mutant Y641N Nucleosome assay IC50 (μM)
# Sequence of EZH2 Mutant Y641N (Q15910 whole entry Y641N, looked up): as the sequence (Q15910 whole entry, looked up) above, with Y641N counted along it
# Sequence of EZH2 Mutant Y641N (O75530 whole entry partner, looked up): as the sequence (O75530 whole entry partner, looked up) above
# Sequence of EZH2 Mutant Y641N (Q15022 whole entry partner, looked up): as the sequence (Q15022 whole entry partner, looked up) above
# Sequence of EZH2 Mutant Y641N (Q09028 whole entry partner, looked up): as the sequence (Q09028 whole entry partner, looked up) above
Structure (SMILES),pKi (WT EZH2),pIC50 (EZH2 Mutant Y641N),Ki (WT EZH2),IC50 (EZH2 Mutant Y641N)
"COc1cc(C)[nH]c(=O)c1CN1CCc2c(Cl)cc([C@@H](OC)C3COC3)c(Cl)c2C1=O [Example 82, 5,8-dichloro-2-[(4-methoxy-6-methyl-2-oxo-1,2-dihydropyridin-3-yl)methyl]-7-[(S)-methoxy(oxetan-3-yl)methyl]-3,4-dihydroisoquinolin-1(2H)-one]",8.22,6.88,–,–
"COc1cc(C)[nH]c(=O)c1CN1CCc2c(Cl)cc(C(OC)C3CCN(C=O)CC3)c(Cl)c2C1=O (single isomer, unassigned) [Example 118]",10.00,8.52,–,–
"COC(c1cc(C)c2c(c1Cl)C(=O)N(Cc1c(C)cc(C)[nH]c1=O)CC2)C1CCN(C2COC2)CC1 (single isomer, unassigned) [Example 154]",7.35,6.26,–,–
"CC(=C1CNC1)c1cc(Cl)c2c(c1Cl)C(=O)N(Cc1c(C)cc(C)[nH]c1=O)CC2 [Example 74, 7-(1-(azetidin-3-ylidene)ethyl)-5,8-dichloro-2-((4,6-dimethyl-2-oxo-1,2-dihydropyridin-3-yl)methyl)-3,4-dihydroisoquinolin-1(2H)-one]",8.30,7.29,–,–
"COc1cc(C)[nH]c(=O)c1CN1CCc2c(Cl)cc(C(OC)C3CCN(C(C)=O)CC3)c(Cl)c2C1=O (single isomer, unassigned) [Example 122]",7.14,6.63,–,–
Cc1cc(C)c(CN2CCc3c(Cl)cc(C(CO)N4CCC(F)(F)C4)c(Cl)c3C2=O)c(=O)[nH]1 (racemic) [Example 59],7.60,6.81,–,–
"Cc1cc(C)c(CN2CCc3c(Cl)cc([C@@H](CC#N)[C@@H]4CCOC4)c(Cl)c3C2=O)c(=O)[nH]1 (single isomer, unassigned) [Example 54]",8.40,7.92,–,–
"COC(c1cc(C)c2c(c1Cl)C(=O)N(Cc1c(C)cc(C)[nH]c1=O)CC2)C1CCN(C2COC2)CC1 (single isomer, unassigned) [Example 155]",8.89,7.57,–,–
"COC(c1cc(Cl)c2c(c1Cl)C(=O)N(Cc1c(C)cc(C)[nH]c1=O)CC2)C1CCS(=O)(=O)C1 (single isomer, unassigned) [Example 149]",6.27,5.64,–,–
"COC(c1cc(Cl)c2c(c1Cl)C(=O)N(Cc1c(C)cc(C)[nH]c1=O)CC2)C1CC[S+]([O-])CC1 (single isomer, unassigned) [Example 114]",7.80,6.82,–,–
"COC(c1cc(Cl)c2c(c1Cl)C(=O)N(Cc1c(C)cc(C)[nH]c1=O)CC2)C1(F)CCN(C)CC1 (single isomer, unassigned) [Example 121]",7.54,6.59,–,–
COc1cc(C)[nH]c(=O)c1CN1CCc2c(C)cc(C(C)=C3CN(S(C)(=O)=O)C3)c(Cl)c2C1=O [Example 78],8.40,7.40,–,–
Cc1cc(C)c(CN2CCc3c(Cl)cc([C@@H](CO)[C@@H]4CCCO4)c(Cl)c3C2=O)c(=O)[nH]1 [Example 46],6.92,6.37,–,–
Cc1cc(C)c(CN2CCc3c(Cl)cc(C(CO)N4CCCC4)c(Cl)c3C2=O)c(=O)[nH]1 (racemic) [Example 57],6.39,5.87,–,–
CC(=C1CCNCC1)c1cc(Cl)c2c(c1Cl)C(=O)N(Cc1c(C)cc(C)[nH]c1=O)CC2 [Example 80],9.00,8.15,–,–
"Cc1cc(C)c(CN2CCc3ccc(C(CO)C4CCOC4)c(Cl)c3C2=O)c(=O)[nH]1 (single isomer, unassigned) [Example 96]",6.69,5.52,–,–
"COC(c1ccc2c(c1Cl)C(=O)N(Cc1c(C)cc(C)[nH]c1=O)CC2)C1CCOC1 (single isomer, unassigned) [Example 134]",6.88,5.72,–,–
"COC(c1cc(Cl)c2c(c1Cl)C(=O)N(Cc1c(C)cc(C)[nH]c1=O)CC2)[C@@H](C)CO (single isomer, unassigned) [Example 143]",6.56,5.75,–,–
"COC(c1cc(Cl)c2c(c1Cl)C(=O)N(Cc1c(C)cc(C)[nH]c1=O)CC2)C1(F)CCN(C)CC1 (single isomer, unassigned) [Example 120]",8.70,7.85,–,–
"Cc1cc(C)c(CN2CCc3c(Cl)cc([C@H](CO)[C@H]4CCCO4)c(Cl)c3C2=O)c(=O)[nH]1 [Example 13, 5,8-dichloro-2-[(4,6-dimethyl-2-oxo-1,2-dihydropyridin-3-yl)methyl]-7-{(1R)-2-hydroxy-1-[(2R)-tetrahydrofuran-2-yl]ethyl}-3,4-dihydroisoquinolin-1(2H)-one]",8.52,7.74,–,–
"COC(c1cc(Cl)c2c(c1Cl)C(=O)N(Cc1c(C)cc(C)[nH]c1=O)CC2)C1CCOC1 (single isomer, unassigned) [Example 162]",–,–,0.148 µM,2.97 µM
Cc1cc(C)c(CN2CCc3ccc([C@H](CO)[C@@H]4CCOC4)c(Cl)c3C2=O)c(=O)[nH]1 (racemic) [Example 65],8.22,7.33,–,–
"COC(c1cc(Cl)c2c(c1Cl)C(=O)N(Cc1c(C)cc(C)[nH]c1=O)CC2)C1CCS(=O)(=O)C1 (single isomer, unassigned) [Example 148]",7.25,6.36,–,–
"COc1cc(C)[nH]c(=O)c1CN1CCc2c(C)cc([C@@H](OC)[C@H]3CCOC3)c(Cl)c2C1=O [Example 86, 8-chloro-2-[(4-methoxy-6-methyl-2-oxo-1,2-dihydropyridin-3-yl)methyl]-7-{(S)-methoxy[(3S)-tetrahydrofuran-3-yl]methyl}-5-methyl-3,4-dihydroisoquinolin-1(2H)-one]",7.21,6.20,–,–
"Cc1cc(C)c(CN2CCc3c(Cl)cc(C(CO)N4CCC(F)(F)C4)c(Cl)c3C2=O)c(=O)[nH]1 (single isomer, unassigned) [Example 66]",8.05,7.09,–,–
"COC(c1cc(Cl)c2c(c1Cl)C(=O)N(Cc1c(C)cc(C)[nH]c1=O)CC2)C1CCS(=O)(=O)C1 (single isomer, unassigned) [Example 151]",9.10,8.05,–,–
"Cc1cc(C)c(CN2CCc3c(Cl)cc(C(CO)N4CC[C@H](F)C4)c(Cl)c3C2=O)c(=O)[nH]1 (single isomer, unassigned) [Example 63]",6.28,5.39,–,–
"COC(c1cc(Br)c2c(c1Cl)C(=O)N(Cc1c(C)cc(C)[nH]c1=O)CC2)C1CN(C(=O)CO)C1 (single isomer, unassigned) [Example 139]",9.30,8.07,–,–
"COC(c1cc(Cl)c2c(c1Cl)C(=O)N(Cc1c(C)cc(C)[nH]c1=O)CC2)C1(O)CCOCC1 (single isomer, unassigned) [Example 52]",6.53,5.98,–,–

# Next, values leading:
pKi (WT EZH2),pIC50 (EZH2 Mutant Y641N),Ki (WT EZH2),IC50 (EZH2 Mutant Y641N),Structure (SMILES)
9.52,8.30,–,–,"COc1cc(C)[nH]c(=O)c1CN1CCc2c(C)cc(C(C)C3CN(S(C)(=O)=O)C3)c(Cl)c2C1=O (single isomer, unassigned) [Example 191]"
9.70,8.52,–,–,"Cc1cc(C)c(CN2CCc3c(C)cc(C(C)C4COC4)c(Cl)c3C2=O)c(=O)[nH]1 (single isomer, unassigned) [Example 196]"
9.15,8.22,–,–,"Cc1cc(C)c(CN2CCc3c(Cl)cc(C(C)C4CNC4)c(Cl)c3C2=O)c(=O)[nH]1 (single isomer, unassigned) [Example 189]"
10.00,8.70,–,–,"COc1cc(C)[nH]c(=O)c1CN1CCc2c(Cl)cc(C(C)C3CCN(C(=O)CO)CC3)c(Cl)c2C1=O (single isomer, unassigned) [Example 200]"
9.70,8.30,–,–,"COc1cc(C)[nH]c(=O)c1CN1CCc2c(Cl)cc(C(OC)C3CCN(C(C)=O)CC3)c(Cl)c2C1=O (single isomer, unassigned) [Example 123]"
8.77,7.80,–,–,"CCC(OC)c1cc(Cl)c2c(c1Cl)C(=O)N(Cc1c(OC)cc(C)[nH]c1=O)CC2 (single isomer, unassigned) [Example 108]"
–,–,0.0009 µM,0.008 µM,"COc1cc(C)[nH]c(=O)c1CN1CCc2c(Cl)cc(C(OC)C3CCOC3)c(Cl)c2C1=O (single isomer, unassigned) [Example 125]"
5.65,5.04,–,–,"COC(c1cc(C)c2c(c1Cl)C(=O)N(Cc1c(C)cc(C)[nH]c1=O)CC2)C1CN(C2COC2)C1 (single isomer, unassigned) [Example 182]"
7.85,6.62,–,–,"Cc1cc(C)c(CN2CCc3c(Cl)cc(C(C)C4CN(S(C)(=O)=O)C4)c(Cl)c3C2=O)c(=O)[nH]1 (single isomer, unassigned) [Example 186]"
–,–,0.0002 µM,0.0022 µM,"COc1cc(C)[nH]c(=O)c1CN1CCc2c(Cl)cc(C(OC)C3CCOC3)c(Cl)c2C1=O (single isomer, unassigned) [Example 127]"
6.93,6.22,–,–,"COc1cc(C)[nH]c(=O)c1CN1CCc2c(C)cc(C(C)C3CN(S(C)(=O)=O)C3)c(Cl)c2C1=O (single isomer, unassigned) [Example 192]"
7.80,7.00,–,–,"Cc1cc(C)c(CN2CCc3c(Cl)cc(C(C)C4CNC4)c(Cl)c3C2=O)c(=O)[nH]1 (single isomer, unassigned) [Example 190]"
9.22,7.89,–,–,"COC(c1cc(Cl)c2c(c1Cl)C(=O)N(Cc1c(C)cc(C)[nH]c1=O)CC2)C1CN(C)C1 (single isomer, unassigned) [Example 174]"
8.70,7.21,–,–,"COc1cc(C)[nH]c(=O)c1CN1CCc2c(Cl)cc(C(C3COC3)N(C)C)c(Cl)c2C1=O (single isomer, unassigned) [Example 204]"
7.48,7.21,–,–,"COc1cc(C)[nH]c(=O)c1CN1CCc2c(C)cc(C(C)C3COC3)c(Cl)c2C1=O (single isomer, unassigned) [Example 197]"
